Values quoted from earlier work as cited in US20230285491A1, “COMPOSITION FOR PREVENTION OF DUMPING SYNDROME IN A POST-BARIATRIC SURGERY SETTING” (METAGENICS, INC., priority 2020, published 2023).

Molecular target: T1, GLP-1 receptor (Homo sapiens, UniProt P43220)
T1 construct: GLP-1 receptor antagonism prevented hypoglycemia in all patients and reversed neuroglycopenic symptoms; host or cells: gastric bypass patients (in vivo, endogenous receptor)
Details: gastric bypass patients

T1 sequence (P43220 24-463): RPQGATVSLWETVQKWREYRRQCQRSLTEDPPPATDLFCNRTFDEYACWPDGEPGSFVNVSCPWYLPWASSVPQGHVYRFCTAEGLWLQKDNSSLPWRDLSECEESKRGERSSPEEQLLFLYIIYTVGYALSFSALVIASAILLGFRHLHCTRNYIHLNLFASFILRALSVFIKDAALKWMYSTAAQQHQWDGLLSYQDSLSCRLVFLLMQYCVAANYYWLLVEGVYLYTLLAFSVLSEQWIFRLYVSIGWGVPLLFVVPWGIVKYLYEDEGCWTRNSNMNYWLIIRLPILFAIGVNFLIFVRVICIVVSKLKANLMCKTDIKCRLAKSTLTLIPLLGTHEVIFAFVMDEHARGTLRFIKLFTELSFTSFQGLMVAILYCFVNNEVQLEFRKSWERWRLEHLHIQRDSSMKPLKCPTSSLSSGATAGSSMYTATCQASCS

Substance: Exendin-(9-39)
- effect on postprandial hypoglycemic and hyperinsulinemic events: corrected postprandial hypoglycemic and hyperinsulinemic events
